This note sets out measurements from US8367695B2, “Condensed tetrahydroquinoline derivative and use thereof for medical purposes” (Mitsubishi Tanabe Pharma Corporation, priority 2007, dated 2013).

The assay deals with T1, human recombinant glucocorticoids receptor (GR) (Homo sapiens, UniProt P04150).
T1 sequence (P04150 1-777): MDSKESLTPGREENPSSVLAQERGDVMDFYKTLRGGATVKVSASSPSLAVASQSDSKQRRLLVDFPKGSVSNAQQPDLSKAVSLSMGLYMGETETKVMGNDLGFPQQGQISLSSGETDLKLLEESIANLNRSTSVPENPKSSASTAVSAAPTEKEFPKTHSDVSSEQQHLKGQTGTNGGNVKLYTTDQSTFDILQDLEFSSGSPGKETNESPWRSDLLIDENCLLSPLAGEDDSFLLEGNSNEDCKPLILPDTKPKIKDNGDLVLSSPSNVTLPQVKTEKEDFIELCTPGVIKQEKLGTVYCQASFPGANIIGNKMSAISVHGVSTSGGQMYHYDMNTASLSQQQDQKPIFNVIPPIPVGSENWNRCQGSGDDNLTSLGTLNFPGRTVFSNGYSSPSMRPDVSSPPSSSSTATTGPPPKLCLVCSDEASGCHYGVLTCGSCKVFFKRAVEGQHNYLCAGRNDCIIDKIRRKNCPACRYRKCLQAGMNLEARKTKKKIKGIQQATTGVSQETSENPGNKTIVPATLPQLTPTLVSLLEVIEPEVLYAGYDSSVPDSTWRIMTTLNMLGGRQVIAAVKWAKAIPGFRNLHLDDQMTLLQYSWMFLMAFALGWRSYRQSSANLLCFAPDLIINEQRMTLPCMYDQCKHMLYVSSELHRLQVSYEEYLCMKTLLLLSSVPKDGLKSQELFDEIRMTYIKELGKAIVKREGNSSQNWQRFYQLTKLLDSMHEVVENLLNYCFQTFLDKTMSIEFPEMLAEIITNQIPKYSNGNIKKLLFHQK
As to the kind of experiment: Radioactive ligand binding test, GR cytosol, [3H]-Dex. The note with it: [3H]-Dex about 5 nM, GR cytosol, 4° C.; Cheng-Prusoff, Kd about 3.1 nM; read-out: GR (Ki: nM). How it is done:
Radioactive Ligand Binding Test Using Cytosols of Human Glucocorticoids Receptor, Progesterone Receptor and Mineralocorticoid Receptor
Opthalmol. Vis. […] In brief, cytosol preparations of human recombinant glucocorticoids receptor (GR) and human recombinant progesterone receptor-B (PRB) were purchased from Invitrogen (Carlsbad, Calif.), and a cytosol preparation of human recombinant mineralocorticoid receptor (MR) was prepared by our company (Yokohama, JP). MR cDNA was cloned into a baculovirus expression vector and expressed in insect cell Sf9. […] [^3H]-Dexamethasone (Dex, specific activity 91.0 Ci/mmol) was purchased from GE Healthcare (Buckinghamshire, UK), and [^3H]-progesterone (Prog, specific activity 103 Ci/mmol) and [3H]-aldosterone (Ald, specific activity 87.9 Ci/mmol) were each purchased from PerkinElmer (Boston, Mass.). Polypropylene round-bottomed 96 well plate was obtained from ABgene (Epsom, UK). Dimethyl Sulfoxide (DMSO) and hydrochloric acid were obtained from Kanto Chemical (TOKYO, JP). Trizma Base (Tris), Bovine Serum Albumin (BSA) and Sodium tungstate dihydrate were obtained from Sigma Chemicals (St. Louis, Mo.). Dithiothreitol (DTT) and Dextran 70 were obtained from GE Healthcare (Buckinghamshire, UK). Glycerol was obtained from Junsei Chemical (TOKYO, JP). Norit® “SX-II” was obtained from Wako Pure Chemical Industries, Ltd. (Osaka, JP). MeltiLex™, A, Printed Filtermat A and Sample Bag were obtained from PerkinElmer (Boston, Mass.).
As a buffer for GR binding assay, 25 mM Tris-HCl (4° C., pH 7.4)/1 mM EDTA·2Na/1 mM DTT/0.1% BSA was prepared and used. As buffers for PRB and MR binding assay, 10 mM Tris-HCl (4° C., pH 7.4)/1 mM DTT/0.1% BSA/10% glycerol and 20 mM Tris-HCl (4° C., pH 7.4)/1 mM EDTA·2Na/10% glycerol/20 mM sodium tungstate were respectively prepared and used.
Compound storage solutions (5-20 mM) were prepared using DMSO. The storage solutions were diluted with DMSO to 0.1 mM (for GR) and 0.3 mM (for PRB and MR), and further diluted 20-fold with distilled water to give solutions. Then, the preparations were diluted to each concentration with 5% DMSO solution. 1% DMSO was present at the time of the binding assay.
GR, PRB and MR binding reactions were performed in 96 well plate (ABgene). In the case of GR binding assay, [^3H]-Dex (about 5 nM), GR cytosol (concentration of function receptor: about 4 pmol/mL), a test compound and a binding buffer were mixed in a total volume of 50 μL, and the mixture was stood at 4° C. for 30 min or longer. A specific binding was defined to be the difference in the [^3H]-Dex binding between the presence and the absence of 1 μM unlabeled Dex.
After the reaction, 50 μL of DCC was added to each well and blended. Thereafter, the mixture was stood at 4° C. for 10 min. The plate was applied to high-speed cooling centrifuge under the conditions of 4° C., 2000 rpm, 5 min to perform B/F separation. A given amount of the supernatant was recovered, which was spotted on Filtermat A of 96 well format (PerkinElmer) and rapidly dried at a high temperature.
Measurement of Inhibition Constant (Ki)
Ki of the test compound was determined by the following Cheng-Prusoff equation: Ki=IC50/(1+[L*]/Kd) • wherein L* is a concentration of radioactive ligand and Kd is a dissociation constant for radioactive ligand determined by saturation analysis.

SMILES strings stand for the structures.

In general, Ki refers to the dissociation constant of the complex between target and ligand, obtained from inhibition or displacement. `CC1(C)Nc2c(cc(-c3cncc4nccn34)c3occc23)C(C)(C)C1=O` [Example 100, 6-(imidazo[1,2-a]pyrazin-5-yl)-2,2,4,4-tetramethyl-1,2,3,4-tetrahydro-furo[2,3-h]quinolin-3-one]: the Ki came to 85 nM. On to `CC1(C)Nc2c(cc(-c3cccc4ncccc34)c3occc23)C(C)(C)C1=O` [Example 101, 2,2,4,4-tetramethyl-6-(quinolin-5-yl)-1,2,3,4-tetrahydro-furo [2,3-h]quinolin-3-one], for which the Ki turned out to be 35 nM. In the case of `CC1(C)Nc2c(cc(-c3ccnc4ncccc34)c3occc23)C(C)(C)C1=O` [Example 102, 2,2,4,4-tetramethyl-6-([1,8]naphthyridin-4-yl)-1,2,3,4-tetrahydro-furo[2,3-h]quinolin-3-one], the Ki came to 66 nM. As to `Cc1noc(C)c1-c1cc2c(c3c1C(=O)CC3)NC(C)(C)C(=O)C2(C)C` [Example 104, 6-(3,5-dimethylisoxazol-4-yl)-2,2,4,4-tetramethyl-2,3,4,7,8,9-hexahydro-1H-cyclopenta[h]quinoline-3,7-dione], the Ki is 60 nM.
